# Experimental data taken from US20180214467A1, “GLP-1 SECRETAGOGUE” (EDUCATIONAL FOUNDATION JICHI MEDICAL UNIVERSITY, priority 2015, published 2018).
# Columns and labels:
# C57BL/6J male mice [1] = test: Amount of diet ingested after oral D-psicose or D-tagatose (Example 4); assay type: in vivo; conditions: 1 g/kg oral, vs control group (saline)
# Experimental: The C57BL/6J male mice (7-11 weeks old) were preliminarily grown in separate cages for one week or more, and habituated to the growth and experimental environment through training by the experimenter. After the fasting for 16 hours from 18:00 on the day before the experiment, saline, D-psicose at 1 g/kg, or D-tagatose at 1 g/kg was orally administered into each stomach from 9:50. The doses were each 10 ml/kg. From 10:00, the mice were fed with Diet CE-2 ad lib. After 1 hour, 2 hours, and 6 hours, the amounts of the diet ingested were measured over time. Each amount of the diet ingested was calculated as the amount of energy ingested (kcal), given that 1 g of D-tagatose orally administered into the stomach is 2 kcal, and 1 g of Diet CE-2 is 3.45 kcal. As the statistical analyses, a one-way analysis of variance (unpaired) was performed on the results at the respective time points, and multiple comparisons were performed by Tukey's test among all the groups. […] Note that, in FIG. 5, * indicates p<0.05, and ** indicates p<0.01.
# C57BL/6J male mice [2] = test: Portal vein active GLP-1 and total GIP 30 minutes after oral administration of monosaccharides to fasting mice (Example 2); assay type: in vivo; conditions: 30 minutes after administration, vs saline
# Experimental: To the C57BL/6J male mice (9-11 weeks old) having fasted for 16 hours from 18:00 on the day before the experiment, D-psicose at 0.3 g/kg or 1 g/kg, D-tagatose or D-glucose each at 1 g/kg, or saline was orally administered into each stomach at 10:00 AM. The dose of the oral administration was 10 ml/kg. The blood was collected from the portal vein under isoflurane anesthesia 30 minutes after the administration. Note that an anticoagulant (heparin (final concentration: 50 IU/ml)) and peptide degradation suppressors (aprotinin (final concentration: 500 KIU/ml) and vildagliptin (final concentration: 10 μM)) had been added into the sampling syringes in advance. The collected blood was cooled and centrifuged. The blood plasma was stored at −80° C. until the analysis. The quantitative analyses of active GLP-1 and total GIP were conducted using the above-described kits. In addition, as the statistical analyses, a one-way analysis of variance (unpaired) was performed, followed by Dunnett's test using saline as the control. […] Note that, in FIG. 3, * indicates p<0.05, and ** indicates p<0.01. Moreover, numerical values in bar graphs in the figure each indicate the number of experiments.
# healthy subjects = test: Total GLP-1 blood concentration AUC after single ingestion by healthy subjects (Example 6); assay type: in vivo; conditions: humans, fasting
# Experimental: After setting a termination period for one week or more in advance, 200 ml of water (control beverage) or D-psicose at 5 g/200 ml (D-psicose: 0.07 to 0.11 g/kg body weight), 10 g/200 ml (D-psicose: 0.14 to 0.22 g/kg body weight), or 15 g/200 ml (test beverage) (D-psicose: 0.21 to 0.33 g/kg body weight) each at a single dose was randomly ingested by six healthy subjects (three men and three women. The body weights: 53.3±7.4 kg). In the night before the day when the control beverage or the test beverage was ingested (test day), a designated dinner was ingested. After 21:00 in the night until 9:00 AM on the test day, the ingestion of foods and beverages excluding water and tea beverages was prohibited. As the designated diet, any menu (curry, chicken and egg bowl, beef bowl, Chinese rice bowl) was selectable which hardly contain substances such as dietary fibers, lactic acid bacteria, and fermentative saccharides utilizable by intestinal bacteria for the fermentations. […] The total GLP-1 amount in the centrifuged blood plasma was measured using the product manufactured by Merck KGaA: “Multi Species GLP-1 Total ELISA.” Note that the subjects were made to keep regular lifestyles and avoid excessive exercising, eating, and drinking during the test period of approximately one month, and spend a time quietly in house during the test.
# C57BL/6J male mice [3] = test: Portal vein active GLP-1, total GLP-1 and total GIP over time after oral administration to fasting mice (Example 1); assay type: in vivo; conditions: 1 g/kg oral
# Experimental: As the experimental animal, C57BL/6J male mice (9-11 weeks old) were used. To the mice having fasted for 16 hours from 18:00 on the day before the experiment, D-psicose at 1 g/kg was orally administered into each stomach at 10:00 AM. The dose of the oral administration was 10 ml/kg. Before the D-psicose administration and 30 minutes and 60 minutes after the administration, the blood was collected from the portal vein under isoflurane anesthesia. Note that an anticoagulant (heparin (final concentration: 50 IU/ml)) and peptide degradation suppressors (aprotinin (final concentration: 500 KIU/ml) and vildagliptin (final concentration: 10 μM)) had been added into the sampling syringes in advance. The collected blood was cooled, centrifuged, and stored at −80° C. until the resulting blood plasma was analyzed. The quantitative analyses of active GLP-1, total GLP-1, and total GIP were conducted using ELISA kits (manufactured by Millipore Corporation. EGLP-35K, EZGLPIT-36K, and EZRMGIP-55K, respectively). In addition, as the statistical analyses, a one-way analysis of variance (paired) was performed, followed by Dunnett's test using a value before the D-psicose administration (0 min) as the control. […] Note that, in FIG. 2, * indicates p<0.05, and ** indicates p<0.01. Moreover, numerical values in bar graphs in FIG. 2 each indicate the number of experiments.
# C57BL/6J male mice [4] = test: Amount of diet ingested after oral D-psicose with or without GLP-1 receptor inhibitor Ex-9 (Example 3); assay type: in vivo; conditions: vs control group
# Experimental: The C57BL/6J male mice (9-11 weeks old) were preliminarily grown in separate cages for one week or more, and habituated to the growth and experimental environment through training by the experimenter. After the fasting for 16 hours from 18:00 on the day before the experiment, saline or a GLP-1 receptor inhibitor (Exendin-9, Ex-9, 200 nmol/kg) was intraperitoneally administered from 9:45. Immediately thereafter, saline or D-psicose at 1 g/kg was orally administered into each stomach. The doses of the intraperitoneal administration and the oral administration were respectively 5 ml/kg and 10 ml/kg. From 10:00, the mice were fed with Diet CE-2 (common mouse diet with well-balanced nutrients, manufactured by CLEA Japan, Inc.) ad lib. After 0.5 hours, 1 hour, 2 hours, 3 hours, and 6 hours, the amounts of the diet ingested were measured over time. Each amount of the diet ingested was calculated as the amount of energy ingested (kcal), given that 1 g of D-psicose orally administered into the stomach is 0 kcal, and 1 g of Diet CE-2 is 3.45 kcal. As the statistical analyses, a one-way analysis of variance (unpaired) was performed on the results at the respective time points, and multiple comparisons were performed by Tukey's test among all the groups. […] Note that, in FIG. 4, * indicates p<0.05, and ** indicates p<0.01.
# [5] = tested on: murine large intestine-derived, Glucagon-like peptide-1 (GLP-1) producing cell line GLUTag; test: GLP-1 secretion test in GLUTag cells (preliminary test); assay type: cell-based; conditions: 10 mM, 20 mM and 40 mM solutions, 60 minutes
# Experimental: A murine large intestine-derived, Glucagon-like peptide-1 (GLP-1) producing cell line GLUTag was cultured in 10%-FBS containing Dulbecco's modified Eagle's medium at 37° C. in the presence of 5% CO2. The GLUTag cells were cultured in a 48-well plate for 2 or 3 days until subconfluence. Before each sample (D-psicose or an indigestible dextrin) was added, the wells were washed with a Hepes buffer (140 mM NaCl, 4.5 mM KCl, 20 mM Hepes, 1.2 mM CaCl2, 1.2 mM MgCl2, 10 mM D-glucose, 0.1% BSA, pH: 7.4). Then, 80 μl of a solution of the sample dissolved in the same buffer was added to the wells, and incubated at 37° C. for 60 minutes. After the supernatant was collected, the cells were precipitated by centrifugation (800×g, 5 minutes, 4° C.), and 70 μl of the supernatant was cryopreserved. The total GLP-1 in this supernatant was measured with commercially available “Enzyme immuno assay kit” (manufactured by Yanaihara Institute Inc.).
# Sprague Dawley rat = test: Blood glucose and total GLP-1 over time after oral administration to fasted rats (Example 5); assay type: in vivo; conditions: 2 g/kg body weight oral, fasted SD rats, 0 to 240 minutes
# Experimental: Before a sample was administered (0 minutes), the blood was collected from the tail vein of each Sprague Dawley rat (8 to 9 weeks old male) having fasted overnight. Using a feeding tube, each solution of deionized water (control group), D-psicose, an indigestible dextrin (DE10), and a dextrin (the product manufactured by Matsutani Chemical Industry Co., Ltd.: “Pinedex #2” (DE10)) was orally administered at 2 g/kg body weight (10 mL/kg body weight). Then, the blood was collected from the tail vein after 15 minutes, 30 minutes, 60 minutes, 90 minutes, 120 minutes, 150 minutes, 180 minutes, 210 minutes, and 240 minutes.
# The blood was collected into a tube to which a DPP-IV inhibitor (manufactured by Millipore Corporation), aprotinin (manufactured by Wako Pure Chemical Industries, Ltd.), and heparin (manufactured by Nacalai Tesque, Inc.) had been added in advance. The blood plasma was collected by centrifugation, and cryopreserved at −80° C. The total GLP-1 concentration in the resulting blood plasma was measured with a commercially available ELISA kit (Multi Species GLP-1 Total ELISA manufactured by Millipore Corporation). The glucose concentration in the blood plasma was measured with Glucose CII-Test Wako (manufactured by Wako Pure Chemical Industries, Ltd.).
# [6] = 30 to 60 minutes after administration vs 0 min
compound,measurement,setting,value
"O=C(CO)[C@@H](O)[C@@H](O)[C@H](O)CO [D-tagatose, reference compound]",amount of the diet ingested,C57BL/6J male mice [1]; 1 hour after administration,significantly smaller
same,amount of the diet ingested,C57BL/6J male mice [1]; 2 hours and 6 hours after administration,almost the same
same,active GLP-1 concentration in the portal veins,C57BL/6J male mice [2]; 1 g/kg oral,tended to increase
same,total GIP in the portal veins,C57BL/6J male mice [2]; 1 g/kg oral,only the D-glucose administration group significantly increased the GIP concentration
O=C(CO)[C@H](O)[C@H](O)[C@H](O)CO [D-psicose],area under total GLP-1 blood concentration-time curve (AUC),"healthy subjects; single dose 5 g, 10 g or 15 g/200 ml, 15 to 180 minutes",increased in a manner dependent on the amount of D-psicose ingested
same,single dose at which the effect of promoting the amount of total GLP-1 secreted into the blood was obtained,healthy subjects; single oral ingestion,at least 0.07 g/kg body weight
same,amount of the diet ingested,C57BL/6J male mice [1]; 1 hour to 6 hours after administration,significantly smaller
same,active GLP-1 concentration in the portal veins,C57BL/6J male mice [3]; [6],increased
same,total GLP-1 concentration in the portal veins,C57BL/6J male mice [3]; [6],increased
same,GIP secretion (total GIP concentration in the portal veins),C57BL/6J male mice [3]; for 60 minutes after administration,did not influence the GIP secretion
same,amount of the diet ingested,"C57BL/6J male mice [4]; Ex-9 200 nmol/kg i.p. + D-psicose 1 g/kg oral, 30 minutes after administration",significantly smaller
same,amount of the diet ingested,"C57BL/6J male mice [4]; Ex-9 200 nmol/kg i.p. + D-psicose 1 g/kg oral, after 1 hour (to 6 hours) from administration",not significantly different
same,amount of the diet ingested,"C57BL/6J male mice [4]; saline i.p. + D-psicose 1 g/kg oral, 30 minutes to 6 hours after administration",significantly decreased
same,GLP-1 secretion (total GLP-1 in supernatant),[5],merely tended to exhibit slight secretion promotion
same,blood sugar level,Sprague Dawley rat,small variation
same,total GLP-1 concentration in the blood,Sprague Dawley rat,greatly increased
same,active GLP-1 concentration in the portal veins,C57BL/6J male mice [2]; 0.3 g/kg oral,tended to increase
same,total GIP in the portal veins,C57BL/6J male mice [2]; 0.3 g/kg oral,only the D-glucose administration group significantly increased the GIP concentration
same,active GLP-1 concentration in the portal veins,C57BL/6J male mice [2]; 1 g/kg oral,significantly increased
same,total GIP in the portal veins,C57BL/6J male mice [2]; 1 g/kg oral,only the D-glucose administration group significantly increased the GIP concentration
"Exendin-9 [Ex9, reference compound]",amount of the diet ingested,"C57BL/6J male mice [4]; Ex-9 200 nmol/kg i.p. + saline oral, all time zones",at the same levels
"O=C[C@H](O)[C@@H](O)[C@H](O)[C@H](O)CO [D-glucose, reference compound]",active GLP-1 concentration in the portal veins,C57BL/6J male mice [2]; 1 g/kg oral,did not change at all
same,total GIP in the portal veins,C57BL/6J male mice [2]; 1 g/kg oral,significantly increased the GIP concentration
